# Test results from patent publication US8192962B2, “Processes for detecting toxic substances” (Daikin Industries, Ltd., priority 2001, dated 2012).
# System: Unknown protein yeast genes
# Assay: DNA chip mRNA expression in yeast, unknown protein yeast genes (Table 1)
# Type: cell-based, Saccharomyces cerevisiae S288C
# In short: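 Whole-genome yeast DNA chip hybridization (65° C., >12 h) of Cy-labeled cDNA from S288C cells exposed 2 h at 25° C. to a sub-lethal toxicant dose in YPD; value is intensity relative to chemical-free control.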
structure (smiles),measurement,setting,value
"S=C([S-])NCCNC(=S)[S-].[Zn+2] [(11), zinc N,N′-ethylenebis(dithiocarbamate)]",The level of expressed mRNA in the presence of chemical substance/The level of expressed mRNA in the absence of chemical substance,"yeast gene YAL053W, incubated two hours with chemical substance",2.3
same,The level of expressed mRNA in the presence of chemical substance/The level of expressed mRNA in the absence of chemical substance,yeast gene YBL048W,2.0
same,The level of expressed mRNA in the presence of chemical substance/The level of expressed mRNA in the absence of chemical substance,yeast gene YBL107C,2.9
same,The level of expressed mRNA in the presence of chemical substance/The level of expressed mRNA in the absence of chemical substance,"yeast gene YDL072C, incubated two hours with chemical substance",1.4
same,The level of expressed mRNA in the presence of chemical substance/The level of expressed mRNA in the absence of chemical substance,"yeast gene YDL204W, incubated two hours with chemical substance",3.2
same,The level of expressed mRNA in the presence of chemical substance/The level of expressed mRNA in the absence of chemical substance,"yeast gene YDL222C, incubated two hours with chemical substance",2.6
same,The level of expressed mRNA in the presence of chemical substance/The level of expressed mRNA in the absence of chemical substance,"yeast gene YDR330W, incubated two hours with chemical substance",0.9
same,The level of expressed mRNA in the presence of chemical substance/The level of expressed mRNA in the absence of chemical substance,"yeast gene YDR391C, incubated two hours with chemical substance",1.9
same,The level of expressed mRNA in the presence of chemical substance/The level of expressed mRNA in the absence of chemical substance,"yeast gene YDR411C, incubated two hours with chemical substance",1.3
same,The level of expressed mRNA in the presence of chemical substance/The level of expressed mRNA in the absence of chemical substance,"yeast gene YDR511W, incubated two hours with chemical substance",1.2
same,The level of expressed mRNA in the presence of chemical substance/The level of expressed mRNA in the absence of chemical substance,"yeast gene YDR545W, incubated two hours with chemical substance",0.7
same,The level of expressed mRNA in the presence of chemical substance/The level of expressed mRNA in the absence of chemical substance,"yeast gene YEL001C, incubated two hours with chemical substance",1.2
same,The level of expressed mRNA in the presence of chemical substance/The level of expressed mRNA in the absence of chemical substance,"yeast gene YER004W, incubated two hours with chemical substance",2.2
same,The level of expressed mRNA in the presence of chemical substance/The level of expressed mRNA in the absence of chemical substance,"yeast gene YER035W, incubated two hours with chemical substance",1.4
same,The level of expressed mRNA in the presence of chemical substance/The level of expressed mRNA in the absence of chemical substance,"yeast gene YER079W, incubated two hours with chemical substance",2.1
same,The level of expressed mRNA in the presence of chemical substance/The level of expressed mRNA in the absence of chemical substance,"yeast gene YER106W, incubated two hours with chemical substance",1.0
same,The level of expressed mRNA in the presence of chemical substance/The level of expressed mRNA in the absence of chemical substance,"yeast gene YER158C, incubated two hours with chemical substance",2.3
same,The level of expressed mRNA in the presence of chemical substance/The level of expressed mRNA in the absence of chemical substance,"yeast gene YER163C, incubated two hours with chemical substance",1.6
same,The level of expressed mRNA in the presence of chemical substance/The level of expressed mRNA in the absence of chemical substance,"yeast gene YER175C, incubated two hours with chemical substance",1.1
same,The level of expressed mRNA in the presence of chemical substance/The level of expressed mRNA in the absence of chemical substance,"yeast gene YFL006W, incubated two hours with chemical substance",1.2
same,The level of expressed mRNA in the presence of chemical substance/The level of expressed mRNA in the absence of chemical substance,"yeast gene YFL010C, incubated two hours with chemical substance",1.4
same,The level of expressed mRNA in the presence of chemical substance/The level of expressed mRNA in the absence of chemical substance,yeast gene YFL024C,0.6
same,The level of expressed mRNA in the presence of chemical substance/The level of expressed mRNA in the absence of chemical substance,"yeast gene YFL032W, incubated two hours with chemical substance",1.1
same,The level of expressed mRNA in the presence of chemical substance/The level of expressed mRNA in the absence of chemical substance,"yeast gene YGL037C, incubated two hours with chemical substance",3.9
same,The level of expressed mRNA in the presence of chemical substance/The level of expressed mRNA in the absence of chemical substance,"yeast gene YGL047W, incubated two hours with chemical substance",1.9
same,The level of expressed mRNA in the presence of chemical substance/The level of expressed mRNA in the absence of chemical substance,"yeast gene YGL053W, incubated two hours with chemical substance",1.3
same,The level of expressed mRNA in the presence of chemical substance/The level of expressed mRNA in the absence of chemical substance,yeast gene YGL121C,6.1
same,The level of expressed mRNA in the presence of chemical substance/The level of expressed mRNA in the absence of chemical substance,yeast gene YGL218W,0.1
same,The level of expressed mRNA in the presence of chemical substance/The level of expressed mRNA in the absence of chemical substance,"yeast gene YGR101W, incubated two hours with chemical substance",2.0
same,The level of expressed mRNA in the presence of chemical substance/The level of expressed mRNA in the absence of chemical substance,yeast gene YGR110W,0.5
same,The level of expressed mRNA in the presence of chemical substance/The level of expressed mRNA in the absence of chemical substance,"yeast gene YGR130C, incubated two hours with chemical substance",0.8
same,The level of expressed mRNA in the presence of chemical substance/The level of expressed mRNA in the absence of chemical substance,yeast gene YGR142W,2.3
same,The level of expressed mRNA in the presence of chemical substance/The level of expressed mRNA in the absence of chemical substance,"yeast gene YGR154C, incubated two hours with chemical substance",1.5
same,The level of expressed mRNA in the presence of chemical substance/The level of expressed mRNA in the absence of chemical substance,"yeast gene YGR221C, incubated two hours with chemical substance",0.5
same,The level of expressed mRNA in the presence of chemical substance/The level of expressed mRNA in the absence of chemical substance,"yeast gene YHR138C, incubated two hours with chemical substance",1.6
same,The level of expressed mRNA in the presence of chemical substance/The level of expressed mRNA in the absence of chemical substance,"yeast gene YHR199C, incubated two hours with chemical substance",1.9
same,The level of expressed mRNA in the presence of chemical substance/The level of expressed mRNA in the absence of chemical substance,"yeast gene YIL023C, incubated two hours with chemical substance",1.1
same,The level of expressed mRNA in the presence of chemical substance/The level of expressed mRNA in the absence of chemical substance,"yeast gene YIL041W, incubated two hours with chemical substance",1.4
same,The level of expressed mRNA in the presence of chemical substance/The level of expressed mRNA in the absence of chemical substance,"yeast gene YIL087C, incubated two hours with chemical substance",2.8
same,The level of expressed mRNA in the presence of chemical substance/The level of expressed mRNA in the absence of chemical substance,yeast gene YIL089W,0.7
same,The level of expressed mRNA in the presence of chemical substance/The level of expressed mRNA in the absence of chemical substance,"yeast gene YJL057C, incubated two hours with chemical substance",2.0
same,The level of expressed mRNA in the presence of chemical substance/The level of expressed mRNA in the absence of chemical substance,"yeast gene YJL066C, incubated two hours with chemical substance",0.8
same,The level of expressed mRNA in the presence of chemical substance/The level of expressed mRNA in the absence of chemical substance,"yeast gene YJL082W, incubated two hours with chemical substance",1.0
same,The level of expressed mRNA in the presence of chemical substance/The level of expressed mRNA in the absence of chemical substance,"yeast gene YJL151C, incubated two hours with chemical substance",1.0
same,The level of expressed mRNA in the presence of chemical substance/The level of expressed mRNA in the absence of chemical substance,"yeast gene YJL152W, incubated two hours with chemical substance",1.0
same,The level of expressed mRNA in the presence of chemical substance/The level of expressed mRNA in the absence of chemical substance,"yeast gene YJL161W, incubated two hours with chemical substance",3.7
same,The level of expressed mRNA in the presence of chemical substance/The level of expressed mRNA in the absence of chemical substance,"yeast gene YJL171C, incubated two hours with chemical substance",2.2
same,The level of expressed mRNA in the presence of chemical substance/The level of expressed mRNA in the absence of chemical substance,"yeast gene YJR008W, incubated two hours with chemical substance",1.4
same,The level of expressed mRNA in the presence of chemical substance/The level of expressed mRNA in the absence of chemical substance,"yeast gene YJR054W, incubated two hours with chemical substance",0.7
same,The level of expressed mRNA in the presence of chemical substance/The level of expressed mRNA in the absence of chemical substance,yeast gene YKL071W,40.3
same,The level of expressed mRNA in the presence of chemical substance/The level of expressed mRNA in the absence of chemical substance,"yeast gene YKL086W, incubated two hours with chemical substance",0.7
same,The level of expressed mRNA in the presence of chemical substance/The level of expressed mRNA in the absence of chemical substance,"yeast gene YKL151C, incubated two hours with chemical substance",2.3
